Reference: patent US10538555B2, “Macrocyclic inhibitors of the PD-1/PD-L1 and CD80(B7-1)/PD-L1 protein/protein interactions” (BRISTOL-MYERS SQUIBB COMPANY, priority 2014, dated 2020)
Like-named read-outs stand apart in the source and are kept apart here. *1 amine or outer side, *2 acyl side, *3 side chain or, on linkers, in order; H or OH if unused. Where a SMILES comes first, the peptide text is derived from it. Bridges are numbered along the chain shown (N, C = ends). [ ]: non-standard residue; d: D form. ξ: configuration not given here. Trp(1-CH2COOH) = N[C@@H](Cc1cn(CC(=O)O)c2ccccc12)C(=O)O; Phe(3,4,5-F3) = N[C@@H](Cc1cc(F)c(F)c(F)c1)C(=O)O; Phe(3,4-F2) = N[C@@H](Cc1ccc(F)c(F)c1)C(=O)O; NMePhe(4-F) = CN[C@@H](Cc1ccc(F)cc1)C(=O)O; Phe(4-F) = N[C@@H](Cc1ccc(F)cc1)C(=O)O; Bta = N[C@@H](Cc1csc2ccccc12)C(=O)O; NMeY = CN[C@@H](Cc1ccc(O)cc1)C(=O)O; Hyp = O=C(O)[C@@H]1C[C@@H](O)CN1; NMeF = CN[C@@H](Cc1ccccc1)C(=O)O; X1 = O=C([C@H]1COCCN1[*:1])[*:2]; dNMeF = CN[C@H](Cc1ccccc1)C(=O)O; dHyp = O=C(O)[C@H]1C[C@H](O)CN1; NMeL = CN[C@@H](CC(C)C)C(=O)O; NMehSer = CN[C@@H](CCO)C(=O)O; NMeNle = CCCC[C@H](NC)C(=O)O; NMeV = CN[C@H](C(=O)O)C(C)C; dPip = O=C(O)[C@H]1CCCCN1; hSer = N[C@@H](CCO)C(=O)O; NMeA = CN[C@@H](C)C(=O)O; Orn = NCCC[C@H](N)C(=O)O; dNMeA = CN[C@H](C)C(=O)O; Dab = NCC[C@H](N)C(=O)O; Dap = NC[C@H](N)C(=O)O; ξC = NC(CS)C(=O)O

Molecular target: T1, Human PD-L1/PD-1 (Homo sapiens, UniProt Q9NZQ7)
T1 construct: TVMV protease cleavage site (C); made in house; host or cells: HEK293T cells
T1 sequence (Q9NZQ7 with tags, fused parts or gaps): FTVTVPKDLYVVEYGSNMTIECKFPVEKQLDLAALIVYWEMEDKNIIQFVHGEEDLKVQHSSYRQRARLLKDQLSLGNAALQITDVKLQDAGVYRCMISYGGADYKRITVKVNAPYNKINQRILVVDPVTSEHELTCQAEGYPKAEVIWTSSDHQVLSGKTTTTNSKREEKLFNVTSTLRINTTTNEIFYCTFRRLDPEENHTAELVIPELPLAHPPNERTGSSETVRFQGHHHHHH
Assay: HTRF Human PD-L1/PD-1 binding assay (PD-1-Ig/PD-L1-His)
Settings: PD-L1-His 10 nM, PD-1-Ig 20 nM
Summary of the method: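 Truncated Fc-fused human PD-1 (aa 25-167) at 20 nM and His-tagged PD-L1 (aa 18-239) at 10 nM final are used, with peptides preincubated 15 min with PD-L1. Detection uses europium-cryptate anti-Ig and APC anti-His antibodies; 665/620 nm ratio.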

[1] = class symbol, read-out: HTRF Human PD-L1/PD-1 Binding Assay IC50 Range

Compound | IC50 [1] [nM] | IC50 (read-out: HTRF Human PD-L1/PD-1 Binding Assay IC50) [nM]
CCCC[C@H]1C(=O)N2CCC[C@@H]2C(=O)N[C@@H](CC(=O)O)C(=O)N[C@@H](C(C)C)C(=O)N(C)[C@@H](CC(C)C)C(=O)N[C@@H](CCC(N)=O)C(=O)N2CCC[C@@H]2C(=O)N[C@@H](Cc2c[nH]c3ccccc23)C(=O)N[C@@H](Cc2ccc(O)cc2)C(=O)N[C@@H](CC(C)C)C(=O)N[C@H](C(=O)NCC(N)=O)CSCC(=O)N[C@@H](Cc2ccc(F)cc2)C(=O)N(C)[C@@H](Cc2ccccc2)C(=O)N1C [Example 9253] ({CH2CO}-[Phe(4-F)][NMeF][NMeNle][dP]DV[NMeL]Q[dP]WYLCG-NH2; thioether N-13) | 1000 to 10000 | 
CCCC[C@H]1C(=O)N2C[C@@H](O)C[C@@H]2C(=O)N[C@@H](CC(=O)O)C(=O)N[C@@H](C(C)C)C(=O)N(C)[C@@H](Cc2ccccc2)C(=O)N[C@@H](CCC(=O)O)C(=O)N2C[C@@H](O)C[C@@H]2C(=O)N[C@@H](Cc2c[nH]c3ccccc23)C(=O)N[C@@H](Cc2ccc(O)cc2)C(=O)N[C@@H](CC(C)C)C(=O)N[C@H](C(=O)NCC(N)=O)CSCC(=O)N[C@@H](Cc2ccc(F)c(F)c2)C(=O)N(C)[C@@H](Cc2ccccc2)C(=O)N1C [Example 9277] ({CH2CO}-[Phe(3,4-F2)][NMeF][NMeNle][dHyp]DV[NMeF]E[dHyp]WYLCG-NH2; thioether N-13) | 1 to 9.9 | 
CCCC[C@H]1C(=O)N2CCC[C@@H]2C(=O)N[C@@H](CC(=O)O)C(=O)N[C@@H](C(C)C)C(=O)N(C)[C@@H](C(C)C)C(=O)N[C@@H](Cc2ccc(O)cc2)C(=O)N2CCC[C@@H]2C(=O)N[C@@H](Cc2c[nH]c3ccccc23)C(=O)N[C@@H](Cc2ccc(O)cc2)C(=O)N[C@@H](CCCN)C(=O)N[C@H](C(=O)NCC(N)=O)CSCC(=O)N[C@@H](Cc2ccc(F)cc2)C(=O)N(C)[C@@H](Cc2ccccc2)C(=O)N1C [Example 9243] ({CH2CO}-[Phe(4-F)][NMeF][NMeNle][dP]DV[NMeV]Y[dP]WY[Orn]CG-NH2; thioether N-13) | 1000 to 10000 | 
CCCC[C@H]1C(=O)N2C[C@@H](O)C[C@@H]2C(=O)N[C@@H](CC(=O)O)C(=O)N[C@@H](C(C)C)C(=O)N(C)[C@H](Cc2ccccc2)C(=O)N[C@@H](Cc2ccc(O)cc2)C(=O)N2C[C@@H](O)C[C@@H]2C(=O)N[C@@H](Cc2c[nH]c3ccccc23)C(=O)N[C@@H](Cc2ccc(O)cc2)C(=O)N[C@@H](CC(C)C)C(=O)N[C@H](C(=O)NCC(N)=O)CSCC(=O)N[C@@H](Cc2ccc(F)c(F)c2)C(=O)N(C)[C@@H](Cc2ccccc2)C(=O)N1C [Example 9228] ({CH2CO}-[Phe(3,4-F2)][NMeF][NMeNle][dHyp]DV[dNMeF]Y[dHyp]WYLCG-NH2; thioether N-13) | 10 to 99.9 | 
CCCC[C@H]1C(=O)N(C)[C@@H](CCCC)C(=O)N[C@@H](CCCNC(=N)N)C(=O)NC(C(=O)NCC(N)=O)CSCC(=O)N[C@@H](Cc2ccc(O)cc2)C(=O)N(C)[C@@H](C)C(=O)N[C@@H](Cc2cnc[nH]2)C(=O)N2CCC[C@H]2C(=O)N[C@@H](CC(N)=O)C(=O)N[C@@H](CC(C)C)C(=O)N2CCC[C@H]2C(=O)N[C@@H](Cc2c[nH]c3ccccc23)C(=O)N[C@@H](CO)C(=O)N[C@@H](Cc2c[nH]c3ccccc23)C(=O)N1C (stereo partly drawn) [Example 9144] ({CH2CO}-Y[NMeA]HPNLPWSW[NMeNle][NMeNle]R[ξC]G-NH2; thioether N-14) | 1 to 9.9 | 
CCCC[C@H]1C(=O)N(C)[C@@H](CCCC)C(=O)N[C@@H](CCC(=O)O)C(=O)N[C@H](C(=O)NCC(N)=O)CSCC(=O)N[C@@H](Cc2ccc(O)cc2)C(=O)N(C)[C@@H](C)C(=O)N[C@@H](CC(=O)O)C(=O)N2CCC[C@H]2C(=O)N[C@@H](CN)C(=O)N[C@@H](CCC(N)=O)C(=O)N2C[C@H](O)C[C@H]2C(=O)N[C@@H](Cc2c[nH]c3ccccc23)C(=O)N[C@@H](CO)C(=O)N[C@@H](Cc2cn(CC(=O)O)c3ccccc23)C(=O)N1C [Example 6289] ({CH2CO}-Y[NMeA]DP[Dap]Q[Hyp]WS[Trp(1-CH2COOH)][NMeNle][NMeNle]ECG-NH2; thioether N-14) | 1 to 9.9 | 
CCCC[C@H]1C(=O)N2CCC[C@@H]2C(=O)N[C@@H](CC(=O)O)C(=O)N[C@@H](C(C)C)C(=O)N(C)[C@@H](Cc2ccccc2)C(=O)N[C@@H](CCC(=O)O)C(=O)N2CCCC[C@@H]2C(=O)N[C@@H](Cc2c[nH]c3ccccc23)C(=O)N[C@@H](Cc2ccc(O)cc2)C(=O)N[C@@H](CCN)C(=O)N[C@H](C(=O)NCC(N)=O)CSCC(=O)N[C@@H](Cc2cc(F)c(F)c(F)c2)C(=O)N(C)[C@@H](Cc2ccc(OC)cc2)C(=O)N1C [Example 10603] ({CH2CO}-[Phe(3,4,5-F3)][NMeY](Me)[NMeNle][dP]DV[NMeF]E[dPip]WY[Dab]CG-NH2; thioether N-13) | 1 to 9.9 | 
CCCC[C@H]1C(=O)N(C)[C@@H](CCCC)C(=O)N[C@@H](CCCNC(=N)N)C(=O)NC(C(=O)NCC(N)=O)CSCC(=O)N[C@@H](Cc2ccc(O)cc2)C(=O)N(C)[C@@H](C)C(=O)N[C@@H](CC(N)=O)C(=O)N2CCC[C@H]2C(=O)N[C@@H](CO)C(=O)N[C@@H](CCO)C(=O)N2C[C@H](O)C[C@H]2C(=O)N[C@@H](Cc2c[nH]c3ccccc23)C(=O)N[C@@H](CCO)C(=O)N[C@@H](Cc2csc3ccccc23)C(=O)N1C (stereo partly drawn) [Example 10050] ({CH2CO}-Y[NMeA]NPS[hSer][Hyp]W[hSer][Bta][NMeNle][NMeNle]R[ξC]G-NH2; thioether N-14) | 1 to 9.9 | 
CCCC[C@H]1C(=O)N2CCOC[C@@H]2C(=O)N[C@@H](CC(=O)O)C(=O)N[C@@H](C(C)C)C(=O)N(C)[C@@H](Cc2ccccc2)C(=O)N[C@@H](CCC(=O)O)C(=O)N2C[C@@H](O)C[C@@H]2C(=O)N[C@@H](Cc2c[nH]c3ccccc23)C(=O)N[C@@H](Cc2ccc(O)cc2)C(=O)N[C@@H](CCCN)C(=O)N[C@H](C(=O)NCC(N)=O)CSCC(=O)N[C@@H](Cc2cc(F)c(F)c(F)c2)C(=O)N(C)[C@@H](Cc2ccccc2)C(=O)N1C [Example 9280] ({CH2CO}-[Phe(3,4,5-F3)][NMeF][NMeNle][X1]DV[NMeF]E[dHyp]WY[Orn]CG-NH2; thioether N-13) | 10 to 99.9 | 
CCCC[C@H]1C(=O)N(C)[C@@H](CCCC)C(=O)N[C@@H](CCN)C(=O)NC(C(=O)NCC(N)=O)CSCC(=O)N[C@@H](Cc2ccc(O)cc2)C(=O)N(C)[C@@H](C)C(=O)N[C@@H](CC(N)=O)C(=O)N2CCC[C@H]2C(=O)N[C@@H](CC(N)=O)C(=O)N[C@@H](CC(C)C)C(=O)N2CCC[C@H]2C(=O)N[C@@H](Cc2csc3ccccc23)C(=O)N[C@@H](CO)C(=O)N[C@@H](Cc2c[nH]c3ccccc23)C(=O)N1C (stereo partly drawn) [Example 9163] ({CH2CO}-Y[NMeA]NPNLP[Bta]SW[NMeNle][NMeNle][Dab][ξC]G-NH2; thioether N-14) | 1 to 9.9 | 
CCCC[C@H]1C(=O)N(C)[C@@H](CCCC)C(=O)N[C@@H](CCCNC(=N)N)C(=O)NC(C(=O)NCC(N)=O)CSCC(=O)N[C@@H](Cc2ccc(O)cc2)C(=O)N(C)[C@@H](C)C(=O)N[C@@H](CC(N)=O)C(=O)N2CCC[C@H]2C(=O)N[C@@H](Cc2cnc[nH]2)C(=O)N[C@@H](CCO)C(=O)N2CCC[C@H]2C(=O)N[C@@H](Cc2c[nH]c3ccccc23)C(=O)N[C@@H](CO)C(=O)N[C@@H](Cc2csc3ccccc23)C(=O)N1C (stereo partly drawn) [Example 9126] ({CH2CO}-Y[NMeA]NPH[hSer]PWS[Bta][NMeNle][NMeNle]R[ξC]G-NH2; thioether N-14) | 1 to 9.9 | 
CCCC[C@H]1C(=O)N2CCC[C@@H]2C(=O)N[C@@H](CO)C(=O)N[C@@H](C)C(=O)N(C)[C@@H](Cc2ccccc2)C(=O)N[C@@H](Cc2ccc(O)cc2)C(=O)N2CCCC[C@@H]2C(=O)N[C@@H](Cc2c[nH]c3ccccc23)C(=O)N[C@@H](Cc2ccc(O)cc2)C(=O)N[C@@H](CC(C)C)C(=O)N[C@H](C(=O)NCC(N)=O)CSCC(=O)N[C@@H](Cc2ccccc2)C(=O)N(C)[C@@H](Cc2ccccc2)C(=O)N1C [Example 10056] ({CH2CO}-F[NMeF][NMeNle][dP]SA[NMeF]Y[dPip]WYLCG-NH2; thioether N-13) | 100 to 990 | 
COCC[C@H]1C(=O)N2C[C@@H](O)C[C@@H]2C(=O)N[C@@H](CC(=O)O)C(=O)N[C@@H](C(C)C)C(=O)N(C)[C@@H](Cc2ccccc2)C(=O)N[C@@H](Cc2ccc(OC)cc2)C(=O)N2C[C@@H](O)C[C@@H]2C(=O)N[C@@H](Cc2c[nH]c3ccccc23)C(=O)N[C@@H](Cc2ccc(O)cc2)C(=O)N[C@@H](CCCN)C(=O)N[C@H](C(=O)NCC(N)=O)CSCC(=O)N[C@@H](Cc2ccc(F)c(F)c2)C(=O)N(C)[C@@H](Cc2ccccc2)C(=O)N1C [Example 9239] ({CH2CO}-[Phe(3,4-F2)][NMeF][NMehSer](Me)[dHyp]DV[NMeF]Y(Me)[dHyp]WY[Orn]CG-NH2; thioether N-13) |  | 3.8
CCCC[C@H]1C(=O)N2CCC[C@@H]2C(=O)N[C@@H](CC(=O)O)C(=O)N[C@@H](C(C)C)C(=O)N(C)[C@@H](Cc2ccccc2)C(=O)N[C@@H](CCN)C(=O)N2CCCC[C@@H]2C(=O)N[C@H](CCC(=O)O)C(=O)N[C@@H](Cc2ccc(O)cc2)C(=O)N[C@@H](CCCN)C(=O)N[C@H](C(=O)NCC(N)=O)CSCC(=O)N[C@@H](Cc2cc(F)c(F)c(F)c2)C(=O)N(C)[C@@H](Cc2ccc(F)cc2)C(=O)N1C [Example 10609] ({CH2CO}-[Phe(3,4,5-F3)][NMePhe(4-F)][NMeNle][dP]DV[NMeF][Dab][dPip][dE]Y[Orn]CG-NH2; thioether N-13) | 100 to 990 | 
CC(C)C[C@@H]1NC(=O)[C@H](Cc2ccc(O)cc2)NC(=O)[C@H](Cc2c[nH]c3ccccc23)NC(=O)[C@@H](C)N(C)C(=O)[C@H](Cc2ccc(O)cc2)NC(=O)[C@H](Cc2ccccc2)N(C)C(=O)[C@H](C(C)C)NC(=O)[C@H](CCC(N)=O)NC(=O)[C@@H](C)N(C)C(=O)[C@H](C)N(C)C(=O)[C@H](Cc2ccccc2)N(C)C(=O)[C@H](Cc2cc(F)c(F)c(F)c2)NC(=O)CSC[C@@H](C(=O)NCC(N)=O)NC1=O [Example 9191] ({CH2CO}-[Phe(3,4,5-F3)][NMeF][NMeA][dNMeA]QV[NMeF]Y[dNMeA]WYLCG-NH2; thioether N-13) | 10 to 99.9 | 
